Results published in US8318928B2, “Fused imidazole carboxamides as TRPV3 modulators” (Glenmark Pharmaceuticals, S.A., priority 2008, dated 2012).

Target: T1, Human TRPV3 expressing CHO cells (Homo sapiens, UniProt Q8NET8)
T1 construct: expressed in transfected cells; host or cells: CHO cells, kept under G-418 selection
T1 sequence (Q8NET8 1-790): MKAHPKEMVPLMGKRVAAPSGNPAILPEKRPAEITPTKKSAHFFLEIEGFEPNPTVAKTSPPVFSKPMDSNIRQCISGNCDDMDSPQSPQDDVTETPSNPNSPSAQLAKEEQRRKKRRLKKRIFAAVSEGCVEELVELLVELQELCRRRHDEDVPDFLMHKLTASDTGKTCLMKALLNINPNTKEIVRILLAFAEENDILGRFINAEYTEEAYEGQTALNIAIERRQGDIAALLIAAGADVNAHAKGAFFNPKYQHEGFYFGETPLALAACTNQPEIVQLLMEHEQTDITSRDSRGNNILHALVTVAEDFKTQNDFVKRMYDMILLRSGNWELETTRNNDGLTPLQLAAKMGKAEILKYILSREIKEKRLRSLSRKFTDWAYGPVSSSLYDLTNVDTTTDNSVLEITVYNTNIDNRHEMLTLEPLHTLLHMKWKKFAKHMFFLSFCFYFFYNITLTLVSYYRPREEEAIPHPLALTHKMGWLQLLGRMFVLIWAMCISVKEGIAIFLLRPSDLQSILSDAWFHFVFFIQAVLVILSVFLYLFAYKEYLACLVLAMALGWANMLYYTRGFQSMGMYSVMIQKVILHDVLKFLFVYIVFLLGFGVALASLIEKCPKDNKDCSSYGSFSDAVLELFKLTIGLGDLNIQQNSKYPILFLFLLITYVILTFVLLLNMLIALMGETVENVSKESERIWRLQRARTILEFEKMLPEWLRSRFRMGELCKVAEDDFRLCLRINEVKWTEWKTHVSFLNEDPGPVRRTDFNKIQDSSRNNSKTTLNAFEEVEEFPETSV
Assay: 45Calcium uptake assay: inhibition of 2-APB induced cellular uptake of radioactive calcium
Type: cell-based
Settings: 2-APB 500 μM; for inhibition at 1 µM / Percentage inhibition at 1.0 μM: compound at 1.0 μM; for inhibition at 1 µM: read-out: Percentage inhibition at 1.0 μM; for inhibition at 10 µM / Percentage inhibition at 10.0 μM: compound at 10.0 μM; for inhibition at 10 µM: read-out: Percentage inhibition at 10.0 μM; for IC50: class symbols
Source text: Certain illustrative compounds within the scope of the present invention are screened for TRPV3 activity according to a modified procedure described in (a) Tóth, A. et al. Life Sciences 2003, 73, 487-498. (b) McNamara C, R. et al. Proc. Natl. Acad. Sci. U.S.A., 2007, 104, 13525-13530. The screening of the compounds may be carried out by other methods and procedures known to persons skilled in the art.
Screening for TRPV3 Antagonist Using the ^45Calcium Uptake Assay
The inhibition of TRPV3 receptor activation was followed as inhibition of 2-aminoethxydiphenylborate (2-APB) induced cellular uptake of radioactive calcium. Test compounds were dissolved in dimethyl sulfoxide (DMSO) to prepare 20 mM stock solution and then diluted using plain medium with DMEM/F-12 containing 1.8 mM CaCl2 to get desired concentration. Final concentration of DMSO in the reaction was 0.5% (v/v). Human TRPV3 expressing CHO cells were grown in DMEM/F-12 medium with 10% FBS, 1% penicillin-streptomycin solution, 400 μg/mL of G-418. Cells were seeded 24 h prior to the assay in 96 well plates so as to get ˜50,000 cells per well on the day of experiment. Cells were treated with test compounds for 10 minutes followed by addition of 2-APB at a final concentration of 500 μM and 5 μCi/mL ^45Ca^+2 for 4 minutes. Cells were washed and lysed using buffer containing 1% Triton X-100, 0.1% deoxycholate and 0.1% SDS. Radioactivity in the lysate was measured in Packardt Top count after addition of liquid scintillant. Concentration response curves were plotted as a % of maximal response obtained in the absence of test antagonist. IC50 value was calculated from concentration response curve by nonlinear regression analysis using GraphPad PRISM software.
Percentage inhibition at concentrations of 1.0 μM and 10.0 μM are given in the table along with IC50 (nM) details for selected examples.

Compound	inhibition at 1 µM	inhibition at 10 µM	Percentage inhibition at 1.0 μM	Percentage inhibition at 10.0 μM	IC50
COc1cccc(/C=C/c2nc3sccn3c2C(=O)Nc2nnc(C(F)(F)F)s2)c1OCC(C)(C)C [Example 12, 6-{(E)-2-[2-(2,2-Dimethylpropoxy)-3-methoxyphenyl]vinyl}-N-[5-(trifluoromethyl)-1,3,4-thiadiazol-2-yl]imidazo[2,1-b][1,3]thiazole-5-carboxamide]	13.3%	82.8%	–	–	–
COc1cccc(/C=C/c2nc3sccn3c2C(=O)Nc2nc(C(F)(F)F)co2)c1OCC(C)(C)C [Example 13, 6-{[(E)-2-(2,2-Dimethylpropoxy)-3-methoxyphenyl]vinyl}-N-[4-(trifluoromethyl)-1,3-oxazol-2-yl]imidazo[2,1-b][1,3]thiazole-5-carboxamide]	–	–	10.75%	31.51%	–
COc1cccc(/C=C/c2nc3sccn3c2C(=O)N2CCn3c(nnc3C(F)(F)F)C2)c1OCC(C)(C)C [Example 14]	–	–	10.33%	15.45%	–
COc1cccc(/C=C/c2nc3sccn3c2C(=O)Nc2nc(-c3ccc(C#N)cc3)cs2)c1OCC(C)(C)C [Example 15, N-[4-(4-Cyanophenyl)-1,3-thiazol-2-yl]-6-{(E)-2-[2-(2,2-dimethylpropoxy)-3-methoxyphenyl]vinyl}imidazo[2,1-b][1,3]thiazole-5-carboxamide]	20.7%	26.6%	–	–	–
COc1cccc(/C=C/c2nc3sccn3c2C(=O)Nc2nc(C(F)(F)F)cs2)c1OC1CCCC1 [Example 16, 6-[(E)-2-(2-Cyclopentyloxy-3-methoxyphenyl)vinyl]-N-[4-(trifluoromethyl)-1,3-thiazol-2-yl]imidazo[2,1-b][1,3]thiazole-5-carboxamide]	81.7%	93.1%	–	–	250 to 1000 nM
O=C(Nc1nc(C(F)(F)F)cs1)c1c(/C=C/c2cccc(OC(F)F)c2OC2CCCC2)nc2sccn12 [Example 17, 6-{(E)-2-[2-Cyclopentyloxy-3-(difluoromethoxy)phenyl]vinyl}-N-[4-(trifluoromethyl)-1,3-thiazol-2-yl]imidazo[2,1-b][1,3]thiazole-5-carboxamide]	85.3%	94.6%	–	–	250 to 1000 nM
CC(C)(C)COc1c(/C=C/c2nc3sccn3c2C(=O)Nc2nc(C(F)(F)F)cs2)cccc1OC(F)F [Example 18, 6-{(E)-2-[3-Difluoromethoxy-2-(2,2-dimethylpropoxy)phenyl]vinyl}-N-[4-(trifluoro-methyl)-1,3-thiazol-2-yl]imidazo[2,1-b][1,3]thiazole-5-carboxamide]	96.9%	98.2%	–	–	< 100 nM
O=C(Nc1nc(C(F)(F)F)cs1)c1c(/C=C/c2cccc(O)c2O)nc2sccn12 [Example 19, 6-[(E)-2-(2,3-Dihydroxyphenyl)vinyl]-N-[4-(trifluoromethyl)-1,3-thiazol-2-yl]imidazo[2,1-b][1,3]thiazole-5-carboxamide]	13.9%	4.88%	–	–	–
CC(C)c1csc(NC(=O)c2c(/C=C/c3cccc(OC(F)F)c3OCC(C)(C)C)nc3sccn23)n1 [Example 20, 6-{(E)-2-[2-(2,2-Dimethylpropoxy)-3-(difluoromethoxy)phenyl]vinyl}-N-(4-isopropyl-1,3-thiazol-2-yl)imidazo[2,1-b][1,3]thiazole-5-carboxamide]	53.3%	81.7%	–	–	–
CC(C)(C)COc1c(/C=C/c2nc3sccn3c2C(=O)Nc2nc(C(C)(C)C)cs2)cccc1OC(F)F [Example 21, 6-[(E)-2-(3-(Difluoromethoxy)-2-(2,2-dimethylpropoxy)-phenyl)vinyl]-N-(4-tert-butyl-1,3-thiazol-2-yl)imidazo[2,1-b][1,3]thiazole-5-carboxamide]	80.8%	89.8%	–	–	100 to 250 nM
CC(C)(C)COc1c(/C=C/c2nc3sccn3c2C(=O)Nc2nc(C3CCC3)cs2)cccc1OC(F)F [Example 22, 6-{(E)-2-[2-(2,2-Dimethylpropoxy)-3-(difluoromethoxy)phenyl]vinyl}-N-(4-cyclobutyl-1,3-thiazol-2-yl)imidazo[2,1-b][1,3]thiazole-5-carboxamide]	47.9%	86.5%	–	–	–
CC(C)(C)COc1c(/C=C/c2nc3sccn3c2C(=O)Nc2nc(C3CC3)cs2)cccc1OC(F)F [Example 23, 6-{(E)-2-[2-(2,2-Dimethylpropoxy)-3-(difluoromethoxy)phenyl]vinyl}-N-(4-cyclo-propyl-1,3-thiazol-2-yl)imidazo[2,1-b][1,3]thiazole-5-carboxamide]	93.2%	90%	–	–	< 100 nM
CC(C)(C)COc1c(/C=C/c2nc3sccn3c2C(=O)Nc2cccc(C(F)(F)F)c2)cccc1OC(F)F [Example 24, 6-{(E)-2-[3-(Difluoromethoxy)-2-(2,2-dimethylpropoxy)phenyl]vinyl}-N-(3-trifluoromethylphenyl)imidazo[2,1-b][1,3]thiazole-5-carboxamide]	22.5%	37.3%	–	–	–
CC(C)(C)COc1c(/C=C/c2nc3sccn3c2C(=O)NCc2cccc(C(F)(F)F)c2)cccc1OC(F)F [Example 25, 6-{(E)-2-[3-(Difluoromethoxy)-2-(2,2-dimethylpropoxy)phenyl]vinyl}-N-(3-trifluoromethylbenzyl)imidazo[2,1-b][1,3]thiazole-5-carboxamide]	0%	18.2%	–	–	–
CC(C)(C)COc1c(/C=C/c2nc3sccn3c2C(=O)Nc2ccc(C#N)cn2)cccc1OC(F)F [Example 26, N-(5-Cyanopyridin-2-yl)-6-{(E)-2-[3-(difluoromethoxy)-2-(2,2-dimethylpropoxy)phenyl]vinyl}imidazo[2,1-b][1,3]thiazole-5-carboxamide]	70.1%	77.5%	–	–	–
CC(C)(C)COc1c(/C=C/c2nc3sccn3c2C(=O)Nc2ncc(C(F)(F)F)cc2Cl)cccc1OC(F)F [Example 27, N-[3-Chloro-5-(trifluoromethyl)pyridin-2-yl]-6-{(E)-2-[3-(difluoromethoxy)-2-(2,2-dimethylpropoxy)phenyl]vinyl}imidazo[2,1-b][1,3]thiazole-5-carboxamide]	25.7%	33.9%	–	–	–
CC(C)(C)COc1c(/C=C/c2nc3sccn3c2C(=O)Nc2nc3c(s2)CCC3)cccc1OC(F)F [Example 28, 6-{(E)-2-[2-(2,2-Dimethylpropoxy)-3-(difluoromethoxy)phenyl]vinyl}-N-(5,6-dihydro-4H-cyclopenta[d][1,3]thiazol-2-yl)imidazo[2,1-b][1,3]thiazole-5-carboxamide]	9.45%	15.6%	–	–	–
CC(C)(C)COc1c(/C=C/c2nc3sccn3c2C(=O)Nc2nc3ccc(F)cc3s2)cccc1OC(F)F [Example 29, 6-{(E)-2-[3-(Difluoromethoxy)-2-(2,2-dimethylpropoxy)phenyl]vinyl}-N-(6-fluoro-1,3-benzothiazol-2-yl)imidazo[2,1-b][1,3]thiazole-5-carboxamide]	24%	15.3%	–	–	–
CC(C)(C)COc1c(/C=C/c2nc3sccn3c2C(=O)NCCC#N)cccc1OC(F)F [Example 30, N-(2-Cyanoethyl)-6-{(E)-2-[3-(difluoromethoxy)-2-(2,2-dimethylpropoxy)phenyl]vinyl}imidazo[2,1-b][1,3]thiazole-5-carboxamide]	21.1%	94%	–	–	–
